Publication PMC8597046, “Use of Mixture Dosing and Nonlinear Mixed Effect Modeling of Eight Environmental Contaminants in Rabbits to Improve Extrapolation Value of Toxicokinetic Data” (Environmental Health Perspectives, 2021)

Legend:
[1] = TK assay, intravenous mixture dosing: serum concentrations and noncompartmental analysis (sparse data); conditions: for Serum concentration: IV
Method: (§1) The experiment was carried out on thirty 10-wk old female New Zealand white rabbits (INRA 1777 line) weighing 2.37±0.14kg . […] Blood samples were taken at the designated time points post IV and oral administration: 15 min, 30 min, 1 h, 2 h, 4 h, 8 h, 12 h, 24 h, 3 d, 7 d, and 28 d from groups of 3 or 6 rabbits at each sampling time. Each rabbit was sampled 3 times and 3 rabbits were sampled at each sampling time, except at 30 min post administration, when 6 samples were collected to provide a sufficient blood volume for assaying the compounds. The doses and assay time points were selected to allow the calculation of TK parameters (Table 1) based on preliminary TK data. Residual concentrations of the compounds, and their possible evolution over time, were determined by sampling six entirely untreated rabbits during the TK study on the day of drug administrations, then 14 d and 28 d later.
(§2) The volume administered was adjusted to the animal’s body weight (BW) recorded the day before.
(§3) Intravenous administrations were performed via an indwelling catheter (22G Terumo, 0.9×25mm ) just after its insertion into an ear vein. […] For oral administrations, the mixture of all compounds ( 4mL/kg ) was deposited directly in the mouth of rabbits using a catheter (22G BD Insyte 22G, 0.9×25mm ). Prior to the study, the rabbits had been trained to gradually swallow water and then corn oil.
(§4) Blood samples were collected from the auricular artery using a 20 G needle ( 0.9×25mm ) and a dry tube. The first two blood samples were 8–10mL in volume, whereas a large volume (about 20mL ) was obtained antemortem immediately after electrical stunning (95LX rabbit stunner; Burdis), followed by exsanguination.
(§5) Serum concentration-time profiles of the different compounds were first analyzed using a noncompartmental approach (NCA) involving a sparse data option. Sparse data methodology consists of calculating TK parameters based on the mean profile of all the subjects in the dataset and is appropriate when a rich data series cannot be obtained, as in the present experiment ([FDA 1999]). The area under the concentration time curve ( AUC0−tlast ) and the area under the first moment curve ( AUMC0−tlast ) from dosing time ( t=0 ) to the time of the last measurable concentration were calculated using the linear trapezoidal rule after IV and oral dosing. The area under the serum concentration time curve from dosing time to infinity ( AUC0−inf ) was obtained by adding to AUC0−tlast the area extrapolated from the time of the last measurable concentration to infinity by dividing the last quantifiable serum concentration by the slope of the terminal phase ( λZ ), as estimated by linear regression using the best fit option of Phoenix®.
(§6) The clearance (CL) and apparent clearance (CL_F) were respectively estimated after IV and oral administrations by dividing the administered dose by the AUC0−inf calculated for each analyte.
(§7) The terminal half-life (HL) was estimated with Equation 1: (1) HL=0.69315/λZ where λz is the slope of the terminal phase.
The mean residence time (MRT) was estimated using Equation 3: (3) MRT=AUMCiv0−tlast /AUCiv0−tlast , where AUCMiv0−tlast and AUCiv0−tlast are the values of AUMC0−tlast and AUC0−tlast obtained after IV dosing.
The steady-state volume of distribution ( VSS ) was estimated using Equation 4: (4) VSS=CL×MRT, with CL and MRT as defined above.

[2] = TK assay, oral mixture dosing: serum concentrations and noncompartmental analysis (sparse data); conditions: for Serum concentration: oral
Method: as §1, §2, §3, §4, §5, §6, §7
The oral bioavailability (F) was estimated using Equation 2: (2) F=AUCvo0−tlast×Doseiv/AUCiv0−tlast×Dosevo, where AUCiv0−tlast and AUCvo0-tlast are the values of AUC0−tlast obtained after IV and oral dosing, respectively, and Doseiv and Dosevo are the IV and oral doses.

[3] = oral mixture dosing, NCA, n=12, MEHP after oral DEHP

Question: With `CCCCC(CC)COC(=O)c1ccccc1C(=O)O` (stereo not drawn) [MEHP, mono(2-ethylhexyl)phthalate] as the molecule, how does the CL ([1]; IV mixture dosing, NCA, n=12) read?
Answer: The CL was 7.15 mL/min/kg.

Question: And the MRT ([1]; IV mixture dosing, NCA, n=12)?
Answer: Its MRT is 16.3 h.

Question: What about the VSS ([1]; IV mixture dosing, NCA, n=12) of the same molecule?
Answer: Its VSS is 7.00 L/kg.

Question: What about the VZ ([1]; IV mixture dosing, NCA, n=12) of the same molecule?
Answer: Its VZ is 7.85 L/kg.

Question: What about the Serum concentration ([1]; rabbit 1, 0.30 h) of the same molecule?
Answer: The Serum concentration was 11380 nM.

Question: What about the Serum concentration ([1]; rabbit 1, 4.38 h) of the same molecule?
Answer: The Serum concentration was 72 nM.

Question: What about the Serum concentration ([1]; rabbit 1, 24.03 h) of the same molecule?
Answer: The Serum concentration was under 18 nM.

Question: What about the Serum concentration ([1]; rabbit 2, 0.28 h) of the same molecule?
Answer: The Serum concentration was 14440 nM.

Question: What about the Serum concentration ([1]; rabbit 2, 4.05 h) of the same molecule?
Answer: Its Serum concentration is 39 nM.

Question: What about the Serum concentration ([1]; rabbit 3, 0.35 h) of the same molecule?
Answer: The Serum concentration was 3040 nM.

Question: And the Serum concentration ([1]; rabbit 3, 4.05 h)?
Answer: The Serum concentration was 59 nM.

Question: What about the Serum concentration ([1]; rabbit 4, 0.62 h) of the same molecule?
Answer: The Serum concentration was 4130 nM.

Question: What about the Serum concentration ([1]; rabbit 4, 8.33 h) of the same molecule?
Answer: The Serum concentration was 27.5 nM.

Question: What about the Serum concentration ([1]; rabbit 4, 72.00 h) of the same molecule?
Answer: Its Serum concentration is under 18 nM.

Question: And the Serum concentration ([1]; rabbit 5, 0.75 h)?
Answer: Its Serum concentration is 3760 nM.

Question: And the Serum concentration ([1]; rabbit 5, 8.62 h)?
Answer: The Serum concentration was 42 nM.

Question: What about the Serum concentration ([1]; rabbit 5, 72.03 h) of the same molecule?
Answer: Its Serum concentration is under 18 nM.

Question: And the Serum concentration ([1]; rabbit 6, 0.57 h)?
Answer: Its Serum concentration is 7060 nM.

Question: And the Serum concentration ([1]; rabbit 6, 7.98 h)?
Answer: Its Serum concentration is 21 nM.

Question: What about the Serum concentration ([1]; rabbit 6, 71.97 h) of the same molecule?
Answer: Its Serum concentration is 36 nM.

Question: What about the Serum concentration ([1]; rabbit 7, 1.13 h) of the same molecule?
Answer: Its Serum concentration is 1210 nM.

Question: What about the Serum concentration ([1]; rabbit 7, 11.98 h) of the same molecule?
Answer: The Serum concentration was under 18 nM.

Question: What about the Serum concentration ([1]; rabbit 8, 1.12 h) of the same molecule?
Answer: Its Serum concentration is 820 nM.

Question: What about the Serum concentration ([1]; rabbit 8, 12.02 h) of the same molecule?
Answer: The Serum concentration was under 18 nM.

Question: What about the Serum concentration ([1]; rabbit 9, 1.03 h) of the same molecule?
Answer: The Serum concentration was 720 nM.

Question: What about the Serum concentration ([1]; rabbit 9, 11.97 h) of the same molecule?
Answer: Its Serum concentration is under 18 nM.

Question: And the Serum concentration ([1]; rabbit 11, 2.08 h)?
Answer: The Serum concentration was 480 nM.

Question: What about the Serum concentration ([1]; rabbit 12, 2.08 h) of the same molecule?
Answer: The Serum concentration was 450 nM.

Question: What about the “AUC0−inf” value ([1]; serum, IV mixture dosing, NCA, n=12) of the same molecule?
Answer: The value was 9.73 µM·h.

Question: What about the Cmax ([1]; serum, IV mixture dosing, NCA, n=12, doses in Table 2 r3, BPSG after BPS dosing) of the same molecule?
Answer: Its Cmax is 14400 nM.

Question: And the half-life ([1]; terminal, IV mixture dosing, NCA, n=12)?
Answer: The half-life was 12.7 h.

Question: What about the “F (fraction of the dose of DEHP that has been metabolized into MEHP)” value ([2]; NCA, MEHP after oral DEHP vs IV MEHP, as fraction) of the same molecule?
Answer: Its value is 0.99.

Question: What about the MRT [2, 3] of the same molecule?
Answer: The MRT was 12.0 h.

Question: And the Tmax [2, 3]?
Answer: Its Tmax is 4.05 h.

Question: And the Serum concentration ([2]; rabbit 13, 4.30 h, MEHP after oral DEHP)?
Answer: The Serum concentration was 5150 nM.

Question: What about the Serum concentration ([2]; rabbit 14, 0.37 h, MEHP after oral DEHP) of the same molecule?
Answer: The Serum concentration was 1090 nM.

Question: What about the Serum concentration ([2]; rabbit 14, 4.17 h, MEHP after oral DEHP) of the same molecule?
Answer: The Serum concentration was 5840 nM.

Question: What about the Serum concentration ([2]; rabbit 15, 4.05 h, MEHP after oral DEHP) of the same molecule?
Answer: Its Serum concentration is 6870 nM.

Question: And the Serum concentration ([2]; rabbit 15, 23.98 h, MEHP after oral DEHP)?
Answer: The Serum concentration was 270 nM.

Question: What about the Serum concentration ([2]; rabbit 16, 0.55 h, MEHP after oral DEHP) of the same molecule?
Answer: Its Serum concentration is 1490 nM.

Question: And the Serum concentration ([2]; rabbit 16, 8.22 h, MEHP after oral DEHP)?
Answer: The Serum concentration was 2380 nM.

Question: And the Serum concentration ([2]; rabbit 16, 72.00 h, MEHP after oral DEHP)?
Answer: The Serum concentration was 33 nM.

Question: And the Serum concentration ([2]; rabbit 17, 0.53 h, MEHP after oral DEHP)?
Answer: The Serum concentration was 2290 nM.

Question: What about the Serum concentration ([2]; rabbit 17, 8.48 h, MEHP after oral DEHP) of the same molecule?
Answer: The Serum concentration was 4200 nM.

Question: And the Serum concentration ([2]; rabbit 17, 72.00 h, MEHP after oral DEHP)?
Answer: The Serum concentration was 25 nM.

Question: What about the Serum concentration ([2]; rabbit 18, 0.55 h, MEHP after oral DEHP) of the same molecule?
Answer: Its Serum concentration is 2150 nM.

Question: What about the Serum concentration ([2]; rabbit 18, 8.00 h, MEHP after oral DEHP) of the same molecule?
Answer: The Serum concentration was 3830 nM.

Question: And the Serum concentration ([2]; rabbit 18, 71.96 h, MEHP after oral DEHP)?
Answer: Its Serum concentration is 91 nM.

Question: And the Serum concentration ([2]; rabbit 19, 1.02 h, MEHP after oral DEHP)?
Answer: The Serum concentration was 4160 nM.

Question: What about the Serum concentration ([2]; rabbit 19, 12.00 h, MEHP after oral DEHP) of the same molecule?
Answer: Its Serum concentration is 1610 nM.

Question: What about the Serum concentration ([2]; rabbit 20, 1.07 h, MEHP after oral DEHP) of the same molecule?
Answer: The Serum concentration was 3160 nM.

Question: And the Serum concentration ([2]; rabbit 20, 12.00 h, MEHP after oral DEHP)?
Answer: The Serum concentration was 1930 nM.

Question: What about the Serum concentration ([2]; rabbit 21, 1.08 h, MEHP after oral DEHP) of the same molecule?
Answer: The Serum concentration was 2800 nM.

Question: What about the Serum concentration ([2]; rabbit 21, 12.00 h, MEHP after oral DEHP) of the same molecule?
Answer: The Serum concentration was 1910 nM.

Question: And the Serum concentration ([2]; rabbit 22, 2.00 h, MEHP after oral DEHP)?
Answer: The Serum concentration was 3290 nM.

Question: What about the Serum concentration ([2]; rabbit 23, 2.00 h, MEHP after oral DEHP) of the same molecule?
Answer: Its Serum concentration is 2930 nM.

Question: What about the Serum concentration ([2]; rabbit 24, 2.22 h, MEHP after oral DEHP) of the same molecule?
Answer: Its Serum concentration is 1570 nM.

Question: And the “AUC0−inf” value ([2]; serum, oral mixture dosing, NCA, n=12, MEHP after oral DEHP)?
Answer: Its value is 65.2 µM·h.

Question: What about the Cmax ([2]; serum, oral mixture dosing, NCA, n=12, doses in Table 3 r3, MEHP measured after oral DEHP, BPSG after BPS) of the same molecule?
Answer: Its Cmax is 6870 nM.

Question: What about the half-life ([2]; terminal, oral mixture dosing, NCA, n=12, MEHP after oral DEHP) of the same molecule?
Answer: Its half-life is 10.4 h.
